Laboratory results taken from patent US20250127896A1, “CHIMERIC TIM4 RECEPTORS AND USES THEREOF” (CERO THERAPEUTICS HOLDINGS, INC., priority 2021, published 2025).

Columns and labels:
[1] = system: E7 TCR T cells; assay: APC-like function: E7 peptide-pulsed CER T cells co-cultured with E7 TCR T cells (activation markers, CT Violet proliferation); type: cell-based
Protocol: FIG. 1A: a schematic of pCTX247 (also referred to herein as CER247) and pCTX1107 (also referred to herein as CER1107 or CER1236) chimeric Tim4 receptors and pCTX1107 T cells pulsed with E7 peptides and co-cultured with E7-specific T cells to evaluate their antigen presentation capacity. FIG. 1B: E7-specific proliferation responses were measured by CT Violet dye dilution after 6 days in the presence of autologous CER-T (TLR containing or non-containing CERs) pulsed with E7 peptides. […] All data collected by FACS. Cell tracing show E7 TCR-T cells using an anti-mouse TCRb. E7 TCR-T cells were labeled with CT Violet at the time of co-culture. FIG. 1D: Percentage of proliferated E7 TCR cells in culture among live CD3+ cells determined by flow cytometry based on staining of cell trace violet low E7 TCRb+ cells.
FIG. 2: T cells containing chimeric Tim4 receptors with a TLR intracellular signaling domain added to the CD3ζ signaling domain (and optionally a CD28 signaling domain) are strong stimulators of autologous E7-specific T cell responses. CER-T cells were pulsed with E7 peptide and tested for their capacity to trigger an autologous E7-specific T cell response. CD25, a T cell activation marker, was evaluated on E7 TCR-T cells, 24 hours after CER-T cells were pulsed with E7 peptides. […]

[2] = system: JeKo-1 MCL mCherry+ cells; assay: IFN-γ secretion of CER1236 T cells co-cultured with ibrutinib-treated JeKo-1 cells (ELLA); type: cell-based; settings: JeKo-1 pretreated 20 μM Ibrutinib 48 h, co-culture 0.5 μM Ibrutinib, 120 h
Protocol: After 120 h, IFN-γ secretion was measured using ELLA automated ELISA.

[3] = system: Jeko1 TMEM30A−/− cells; settings: mantle cell lymphoma mouse model
Protocol: Using an engineered TMEM30a phospholipid flippase knockout JeKo-1 lymphoma cell line with constitutive phosphatidylserine exposure (JeKo-1 PS^+), tumor fragment uptake, cytotoxicity, cytokine secretion (GrB, IFN-γ, and TNF-α), and APC-like activity were evaluated in vitro. JeKo-1 PS^+ cells were labeled with the pH-sensitive pHrodo™ dye to quantify the uptake of tumor cells. Chimeric Tim4 receptor-T cells were tested for antigen-display capacity by evaluating autologous HPV E7 TCR T cell activation and proliferation following Chimeric Tim4 receptor-T cell co-culture with JeKo PS+ cells and HPV-derived peptides. Finally, Chimeric Tim4 receptor T cell anti-tumor activity was examined in xenografted MCL models. Statistical analysis was performed using 2-way ANOVA.

CER-1236: chimeric Tim4 receptor: Tim4 binding domain-CD28tm-CD28-CD3z-TLR2 TIR, SEQ ID NO:19; tested as transduced T cells
E7 TCR-T cell surface activation markers CD25 and CD69 upregulated ([1]; 24 hrs following co-culture, controls 23.1%): 41.2% | percentage of dividing E7-TCR-T cells ([1]; by 6 days, controls 8%): 44% | IFN-γ response with ibrutinib [2]: enhances CER1236 T cell IFN-γ response | anti-tumor effect / tumor burden [3]: showed anti-tumor effect
